Assay results taken from ChEMBL document CHEMBL3745662, “Preliminary investigation of 6,7-dihydropyrazolo[1,5-a]pyrazin-4-one derivatives as a novel series of mGlu5 receptor positive allosteric modulators with efficacy in preclinical models of schizophrenia” (Bioorg Med Chem Lett, 2016).

Columns and labels:
Format in all cases: functional, cell-based
[1] = biological target: T1, Metabotropic glutamate receptor 5 (Homo sapiens, UniProt P41594); assay: Positive allosteric modulation of human mGlu5 expressed in HEK293 cells assessed as glutamate-induced calcium mobilization
Target sequence in this assay (P41594 whole entry): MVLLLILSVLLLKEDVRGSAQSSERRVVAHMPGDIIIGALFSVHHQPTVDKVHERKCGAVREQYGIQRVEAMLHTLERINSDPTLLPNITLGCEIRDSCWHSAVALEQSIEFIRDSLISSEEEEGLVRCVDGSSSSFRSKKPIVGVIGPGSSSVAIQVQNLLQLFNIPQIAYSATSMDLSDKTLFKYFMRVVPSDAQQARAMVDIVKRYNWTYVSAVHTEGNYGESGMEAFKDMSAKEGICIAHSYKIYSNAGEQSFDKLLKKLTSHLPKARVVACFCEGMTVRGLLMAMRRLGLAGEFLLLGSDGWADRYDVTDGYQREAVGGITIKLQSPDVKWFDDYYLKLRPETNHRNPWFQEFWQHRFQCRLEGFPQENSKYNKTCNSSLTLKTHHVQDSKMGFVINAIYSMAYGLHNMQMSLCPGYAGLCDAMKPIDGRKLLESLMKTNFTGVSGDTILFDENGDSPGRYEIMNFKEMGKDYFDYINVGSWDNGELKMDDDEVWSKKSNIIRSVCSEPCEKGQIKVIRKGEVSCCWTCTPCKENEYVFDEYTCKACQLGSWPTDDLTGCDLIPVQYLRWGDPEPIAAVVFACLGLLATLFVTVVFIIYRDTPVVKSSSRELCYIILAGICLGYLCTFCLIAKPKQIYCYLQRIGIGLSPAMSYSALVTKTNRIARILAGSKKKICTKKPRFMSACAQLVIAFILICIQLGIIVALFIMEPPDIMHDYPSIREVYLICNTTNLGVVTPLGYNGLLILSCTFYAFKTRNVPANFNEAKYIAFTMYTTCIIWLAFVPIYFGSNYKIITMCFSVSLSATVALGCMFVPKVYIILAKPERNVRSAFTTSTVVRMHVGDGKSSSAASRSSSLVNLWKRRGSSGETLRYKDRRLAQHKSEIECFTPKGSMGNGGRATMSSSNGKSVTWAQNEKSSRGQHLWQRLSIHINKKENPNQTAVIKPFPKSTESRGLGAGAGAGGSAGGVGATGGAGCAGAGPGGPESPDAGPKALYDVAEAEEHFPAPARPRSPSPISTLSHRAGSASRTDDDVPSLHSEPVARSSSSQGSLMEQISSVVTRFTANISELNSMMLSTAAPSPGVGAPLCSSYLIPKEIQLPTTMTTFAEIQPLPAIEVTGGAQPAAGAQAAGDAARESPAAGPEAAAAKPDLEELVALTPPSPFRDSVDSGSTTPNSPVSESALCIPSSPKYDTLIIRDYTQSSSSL

[2] = biological target: T1, Metabotropic glutamate receptor 5; assay: Positive allosteric modulation of human mGlu5 expressed in HEK293 cells assessed as glutamate-induced calcium mobilization relative to glutamate
Target sequence in this assay (P41594 21-1212 limits assumed): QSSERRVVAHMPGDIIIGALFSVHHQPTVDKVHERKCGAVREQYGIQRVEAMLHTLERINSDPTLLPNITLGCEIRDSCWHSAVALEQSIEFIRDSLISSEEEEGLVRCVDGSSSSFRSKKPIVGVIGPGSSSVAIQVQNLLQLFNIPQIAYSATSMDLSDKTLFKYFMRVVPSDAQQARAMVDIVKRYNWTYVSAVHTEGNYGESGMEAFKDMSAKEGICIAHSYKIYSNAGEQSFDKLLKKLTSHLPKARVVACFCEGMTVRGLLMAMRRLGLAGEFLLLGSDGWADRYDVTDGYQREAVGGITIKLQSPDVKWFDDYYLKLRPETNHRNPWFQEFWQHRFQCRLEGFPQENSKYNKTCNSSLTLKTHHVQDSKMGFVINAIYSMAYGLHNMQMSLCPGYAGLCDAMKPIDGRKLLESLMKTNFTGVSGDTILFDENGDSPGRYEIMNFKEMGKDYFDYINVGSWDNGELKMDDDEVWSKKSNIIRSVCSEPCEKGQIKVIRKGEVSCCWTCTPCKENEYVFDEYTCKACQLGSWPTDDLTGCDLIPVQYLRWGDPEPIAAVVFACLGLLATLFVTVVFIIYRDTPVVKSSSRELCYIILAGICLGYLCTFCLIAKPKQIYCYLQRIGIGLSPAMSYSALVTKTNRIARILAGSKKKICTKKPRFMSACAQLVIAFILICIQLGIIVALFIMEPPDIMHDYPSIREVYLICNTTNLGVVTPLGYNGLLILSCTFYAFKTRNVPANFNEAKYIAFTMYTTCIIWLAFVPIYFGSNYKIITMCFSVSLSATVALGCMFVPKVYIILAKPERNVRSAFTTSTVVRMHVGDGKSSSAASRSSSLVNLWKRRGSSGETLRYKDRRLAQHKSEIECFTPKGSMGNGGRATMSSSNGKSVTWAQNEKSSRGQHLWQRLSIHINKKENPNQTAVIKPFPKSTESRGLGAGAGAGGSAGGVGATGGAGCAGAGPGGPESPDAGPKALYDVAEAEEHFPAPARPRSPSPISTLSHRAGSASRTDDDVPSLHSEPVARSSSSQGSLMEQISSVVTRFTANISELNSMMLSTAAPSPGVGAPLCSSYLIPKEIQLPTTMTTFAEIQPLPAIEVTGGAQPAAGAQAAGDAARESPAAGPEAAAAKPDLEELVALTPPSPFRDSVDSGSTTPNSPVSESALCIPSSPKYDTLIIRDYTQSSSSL

[3] = biological target: Metabotropic glutamate receptor 3 (Homo sapiens, UniProt Q14832); assay: Antagonist activity at human mGlu3 expressed in HEK293 cells assessed as inhibition of glutamate-induced calcium mobilization
Sequence of Metabotropic glutamate receptor 3 (Q14832 whole entry): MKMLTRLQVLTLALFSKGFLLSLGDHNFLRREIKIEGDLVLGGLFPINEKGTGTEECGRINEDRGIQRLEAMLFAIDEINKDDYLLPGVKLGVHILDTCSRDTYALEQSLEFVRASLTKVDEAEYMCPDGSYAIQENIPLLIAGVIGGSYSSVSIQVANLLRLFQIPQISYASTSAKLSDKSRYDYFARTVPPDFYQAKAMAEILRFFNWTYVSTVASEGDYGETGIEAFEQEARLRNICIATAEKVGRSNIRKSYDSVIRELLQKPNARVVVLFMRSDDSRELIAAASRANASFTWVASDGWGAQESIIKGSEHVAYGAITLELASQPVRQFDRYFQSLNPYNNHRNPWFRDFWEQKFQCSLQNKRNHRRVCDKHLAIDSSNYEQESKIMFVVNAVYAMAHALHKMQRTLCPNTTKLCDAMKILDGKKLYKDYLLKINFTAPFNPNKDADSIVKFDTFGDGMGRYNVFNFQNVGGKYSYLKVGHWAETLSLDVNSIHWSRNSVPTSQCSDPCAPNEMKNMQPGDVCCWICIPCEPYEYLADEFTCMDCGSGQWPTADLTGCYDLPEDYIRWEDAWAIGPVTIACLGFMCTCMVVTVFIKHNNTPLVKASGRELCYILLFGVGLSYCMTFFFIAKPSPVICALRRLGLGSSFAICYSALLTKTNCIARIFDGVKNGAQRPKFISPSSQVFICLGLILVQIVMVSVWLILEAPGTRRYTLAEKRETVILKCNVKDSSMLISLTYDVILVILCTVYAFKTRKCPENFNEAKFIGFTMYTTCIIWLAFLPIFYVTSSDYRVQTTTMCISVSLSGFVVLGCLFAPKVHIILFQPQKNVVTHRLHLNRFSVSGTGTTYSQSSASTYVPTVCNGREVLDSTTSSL

Row | Structure (SMILES) | EC50 ([1]; read-out: EC50) | Emax [2] | EC50 [3] | EC50 ([1]; read-out: pEC50 (converted))
1 | O=C1c2cc(COc3ccccc3)nn2CCN1c1cccc(F)c1 | 130 nM | 81% | – | –
2 | O=C1c2cc(COc3ccccc3)nn2CCN1c1ncc(F)cn1 | 760 nM | 72% | – | –
3 | Cc1ccc(OCc2cc3n(n2)CCN(c2ccc(F)cc2)C3=O)cc1 | 300 nM | 58% | – | –
4 | Cc1ccc(N2CCn3nc(COc4ccccc4)cc3C2=O)cc1 | 71 nM | 65% | 150 nM | –
5 | Cc1ccc(N2CCn3nc(COc4ccccc4)cc3C2=O)nc1 | 190 nM | 76% | – | –
6 | O=C1c2cc(COc3cccc(F)c3)nn2CCN1c1ccc(F)cc1 | 100 nM | 70% | – | –
7 | O=C1c2cc(COc3ccccc3)nn2CCCN1c1ccc(F)cc1 | 220 nM | 79% | 540 nM | 87.1 nM
8 | O=C1c2cc(COc3ccccn3)nn2CCN1c1ccc(F)cc1 | 490 nM | 68% | 290 nM | –
9 | O=C1c2nc(COc3ccccc3)nn2CCN1c1ccc(F)cc1 | 2340 nM | 65% | – | –
10 | O=C1c2cc(COc3ccccc3)nn2CCN1c1ccc(F)cc1 | 65 nM | 79% | 74 nM | –
11 | COc1ccc(N2CCn3nc(COc4ccccc4)cc3C2=O)cc1 | 110 nM | 58% | – | –
12 | O=C1c2cc(COc3ccncc3)nn2CCN1c1ccc(F)cc1 | 690 nM | 69% | – | –
13 | O=C1c2cc(COc3cccnc3)nn2CCN1c1ccc(F)cc1 | 3980 nM | 69% | – | –
14 | O=C1c2cc(COc3ccc(F)cn3)nn2CCN1c1ccc(F)cc1 | 7940 nM | 52% | – | –
15 | O=C1c2cc(COc3ccccc3)nn2CCN1c1ccccn1 | 760 nM | 69% | – | –
